Measured values as given in article PMC9822066 (Molecules, 2022).
Structures can show the parent of a compound that is named as a salt. Where two headings read alike, the source gives them in different places.

What was measured:
human H3R = target: T1, human H3R (Homo sapiens, UniProt Q9Y5N1); test: [3H]Nα-methylhistamine radioligand binding assay in HEK293 cells stably expressing hH3R
T1 construct: expressed in transfected cells; host or cells: HEK293
Procedure: Final compounds were tested for their H3R affinity in a radioligand binding assay using [^3H]N^α-methylhistamine as radioligand in HEK293 cells stably expressing hH3R [25]. […] Affinity to hH3R stably expressed in HEK293 cells was evaluated in a radioligand binding assay as described previously. […] The radioactivity was counted in a MicroBeta Trilux counter (PerkinElmer). Data were fitted to a one-site curve-fitting equation with Prism 6 (GraphPad Software, San Diego, CA, USA) and Ki values were calculated from IC50 values (from at least three experiments performed in duplicates) according to the Cheng−Prusoff equation [52].

[1] = target: T2, electric eel AChE (eeAChE) (Electrophorus electricus, UniProt O42275); test: biochemical; conditions: for inhibition at 10 µM: read-out: eeAChE % Inh. at 10 µM; for IC50: mean ± SEM, triplicate independent experiments, read-out: eeAChE IC50
T2 construct: purchased Sigma–Aldrich (Steinheim, Germany)
T2 sequence (O42275 24-633): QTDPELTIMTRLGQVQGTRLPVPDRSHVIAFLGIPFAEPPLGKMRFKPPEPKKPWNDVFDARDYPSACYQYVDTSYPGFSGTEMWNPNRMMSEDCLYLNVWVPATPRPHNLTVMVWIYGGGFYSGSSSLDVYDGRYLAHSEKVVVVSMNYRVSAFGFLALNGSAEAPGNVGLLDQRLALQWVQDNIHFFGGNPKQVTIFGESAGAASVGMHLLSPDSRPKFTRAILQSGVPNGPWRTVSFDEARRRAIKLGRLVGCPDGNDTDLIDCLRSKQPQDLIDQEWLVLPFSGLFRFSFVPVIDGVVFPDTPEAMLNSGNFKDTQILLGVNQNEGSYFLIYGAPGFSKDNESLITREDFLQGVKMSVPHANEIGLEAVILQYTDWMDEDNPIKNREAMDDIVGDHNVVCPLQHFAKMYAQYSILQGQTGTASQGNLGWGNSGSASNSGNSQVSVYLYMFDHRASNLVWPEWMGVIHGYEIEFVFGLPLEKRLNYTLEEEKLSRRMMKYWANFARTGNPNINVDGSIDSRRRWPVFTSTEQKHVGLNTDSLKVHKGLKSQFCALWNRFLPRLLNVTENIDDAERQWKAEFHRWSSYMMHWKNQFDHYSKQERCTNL

[2] = target: BuChE from equine serum (eqBuChE) (Equus caballus, UniProt P81908); test: biochemical; type: biochemical; conditions: for IC50: mean ± SEM, triplicate independent experiments
Chain of BuChE from equine serum (eqBuChE) (P81908 whole entry): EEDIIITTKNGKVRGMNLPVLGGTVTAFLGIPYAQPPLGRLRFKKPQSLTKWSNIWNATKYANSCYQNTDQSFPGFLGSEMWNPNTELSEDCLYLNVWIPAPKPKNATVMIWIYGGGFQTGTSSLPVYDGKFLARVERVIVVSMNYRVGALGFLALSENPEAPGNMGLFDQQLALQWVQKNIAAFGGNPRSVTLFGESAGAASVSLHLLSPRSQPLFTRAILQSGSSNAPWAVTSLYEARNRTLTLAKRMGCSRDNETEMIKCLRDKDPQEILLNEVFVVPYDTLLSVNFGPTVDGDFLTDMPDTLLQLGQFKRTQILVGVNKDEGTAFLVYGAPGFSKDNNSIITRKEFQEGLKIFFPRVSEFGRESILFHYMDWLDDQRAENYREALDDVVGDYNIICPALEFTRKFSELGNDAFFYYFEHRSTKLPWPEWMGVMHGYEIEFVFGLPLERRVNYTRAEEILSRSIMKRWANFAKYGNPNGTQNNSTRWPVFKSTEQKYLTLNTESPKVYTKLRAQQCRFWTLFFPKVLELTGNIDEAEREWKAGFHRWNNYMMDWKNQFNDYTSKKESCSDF

hMAO B = target: T3, hMAO B (Homo sapiens, UniProt P27338); test: Fluorometric MAO assay, hMAO B inhibition; type: biochemical; conditions: mean ± SEM of two independent experiments, read-out: hMAO B %Inh. at 1 µM
T3 sequence (P27338 1-520): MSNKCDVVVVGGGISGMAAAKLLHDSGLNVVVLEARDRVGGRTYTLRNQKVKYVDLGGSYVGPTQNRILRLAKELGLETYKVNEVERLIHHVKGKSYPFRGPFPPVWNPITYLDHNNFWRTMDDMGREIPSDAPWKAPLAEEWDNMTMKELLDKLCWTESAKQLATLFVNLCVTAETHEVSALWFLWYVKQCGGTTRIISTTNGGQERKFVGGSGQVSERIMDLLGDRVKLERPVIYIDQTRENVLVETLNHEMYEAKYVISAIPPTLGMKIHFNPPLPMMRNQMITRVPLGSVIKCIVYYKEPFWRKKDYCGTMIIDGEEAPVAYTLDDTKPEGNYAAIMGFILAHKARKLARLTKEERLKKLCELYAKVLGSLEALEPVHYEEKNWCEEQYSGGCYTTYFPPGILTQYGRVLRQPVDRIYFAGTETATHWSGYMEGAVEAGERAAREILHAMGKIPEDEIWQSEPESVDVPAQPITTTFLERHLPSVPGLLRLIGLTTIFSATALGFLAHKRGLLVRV

[3] = mean value within the 95% CI, three repetitions, read-out: hH3R Ki

T1 sequence (Q9Y5N1 whole entry): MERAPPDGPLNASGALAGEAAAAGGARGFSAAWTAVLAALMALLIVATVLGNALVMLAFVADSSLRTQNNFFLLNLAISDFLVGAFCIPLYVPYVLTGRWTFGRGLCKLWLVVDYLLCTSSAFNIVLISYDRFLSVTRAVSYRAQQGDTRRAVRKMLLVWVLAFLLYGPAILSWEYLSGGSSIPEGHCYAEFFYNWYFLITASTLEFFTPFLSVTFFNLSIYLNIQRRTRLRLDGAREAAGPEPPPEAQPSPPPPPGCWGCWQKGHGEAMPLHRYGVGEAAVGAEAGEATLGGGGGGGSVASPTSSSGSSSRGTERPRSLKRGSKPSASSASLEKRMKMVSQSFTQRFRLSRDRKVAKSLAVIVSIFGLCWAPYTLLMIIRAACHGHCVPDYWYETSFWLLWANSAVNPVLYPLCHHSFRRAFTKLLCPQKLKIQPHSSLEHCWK

Row | SMILES | Ki (human H3R) [nM] | inhibition at 10 µM [1] [%] | selectivity eqBuChE versus eeAChE [2] | IC50 [2] [nM] | inhibition at 1 µM (hMAO B) [%] | IC50 [1] [nM] | Ki (human H3R; [3]) [nM]
1 | O=C(O)C(=O)O.O=C(c1ccccc1)c1ccccc1OCCCCCN1CCCCC1 [Compound 2, Phenyl (2-((5-(piperidin-1-yl)pentyl)oxy)phenyl)methanone hydrogen oxalate] | 371 | 22 | selective eqBuChE inhibitors | 1610 ± 60 | 23 |  | 
2 | O=C(c1ccccc1)c1cccc(OCCCCCN2CCCCC2)c1 [Compound 3, Phenyl (3-((5-(piperidin-1-yl)pentyl)oxy)phenyl)methanone hydrogen oxalate] | 210 |  |  | 4010 ± 67 | 15 | 7750 ± 329 | 
3 | O=C(c1ccccc1)c1ccc(OCCCCCN2CCCCC2)cc1 [Compound 4, Phenyl (4-((5-(piperidin-1-yl)pentyl)oxy)phenyl)methanone hydrogen oxalate] |  | 41 |  | 2480 ± 40 | 44 |  | 
4 | O=C(c1ccc(Cl)cc1)c1ccc(OCCCCCN2CCCCC2)cc1 [Compound 5, (4-Chlorophenyl) (4-((5-(piperidin-1-yl)pentyl)oxy)phenyl)methanone hydrogen oxalate] | 20 |  |  | 1680 ± 17 | 18 | 2870 ± 71 | 
5 | O=C(O)C(=O)O.O=C(c1ccccc1)c1ccccc1OCCCCCCN1CCCCC1 [Compound 7, (2-((6-(Piperidin-1-yl)hexyl)oxy)phenyl)(phenyl)methanone hydrogen oxalate] | 161 | 3 | selective eqBuChE inhibitors | 2110 ± 32 | 12 |  | 
6 | O=C(c1ccc(Cl)cc1)c1ccc(OCCCCCCN2CCCCC2)cc1 [Compound 10, (4-Chlorophenyl) (4-((6-(piperidin-1-yl)hexyl)oxy)phenyl)methanone hydrogen oxalate] | 25 |  |  | 2460 ± 61 | 39 | 2670 ± 94 | 
7 | O=C(c1ccc(F)cc1)c1ccc(OCCCCCCN2CCCCC2)cc1 [Compound 11, (4-Fluorophenyl) (4-((6-(piperidin-1-yl)hexyl)oxy)phenyl)methanone hydrogen oxalate] | 26 |  |  | 419 ± 2 | 28 | 3098 ± 9 | 
8 | CC1CCCN(CCCCCOc2ccccc2C(=O)c2ccccc2)C1.O=C(O)C(=O)O (stereo not shown) [Compound 12, (2-((5-(3-Methylpiperidin-1-yl)pentyl)oxy)phenyl)(phenyl)methanone hydrogen oxalate] | 208 | 16 | selective eqBuChE inhibitors | 1610 ± 61 | 9 |  | 
9 | CC1CCCN(CCCCCOc2cccc(C(=O)c3ccccc3)c2)C1 (stereo not shown) [Compound 13, (3-((5-(3-Methylpiperidin-1-yl)pentyl)oxy)phenyl)(phenyl)methanone hydrogen oxalate] | 78 |  |  | 3420 ± 78 | 8 | 3790 ± 104 | 
10 | CC1CCCN(CCCCCOc2ccc(C(=O)c3ccc(Cl)cc3)cc2)C1 (stereo not shown) [Compound 15, (4-Chlorophenyl) (4-((5-(3-methylpiperin-1-yl)pentyl)oxy)phenyl)methanone hydrogen oxalate] |  |  |  | 2560 ± 50 | 19 | 2650 ± 87 | 37
11 | CC1CCCN(CCCCCOc2ccc(C(=O)c3ccc(F)cc3)cc2)C1 (stereo not shown) [Compound 16, (4-Fluorophenyl) (4-((5-(3-methylpiperidin-1-yl)pentyl)oxy)phenyl)methanone hydrogen oxalate] | 12 |  |  | 311 ± 6 | 20 | 2023 ± 6 | 
12 | CC1CCCN(CCCCCCOc2ccccc2C(=O)c2ccccc2)C1.O=C(O)C(=O)O (stereo not shown) [Compound 17, (2-((6-(3-Methylpiperidin-1-yl)hexyl)oxy)phenyl)(phenyl)methanone hydrogen oxalate] | 152 | 20 | selective eqBuChE inhibitors | 2500 ± 28 | 8 |  | 
13 | CC1CCCN(CCCCCCOc2ccc(C(=O)c3ccc(Cl)cc3)cc2)C1 (stereo not shown) [Compound 20, (4-Chlorophenyl) (4-((6-(3-methylpiperin-1-yl)hexyl)oxy)phenyl)methanone hydrogen oxalate] |  |  |  | 2520 ± 31 | 17 | 2740 ± 98 | 44
14 | CC1CCCN(CCCCCCOc2ccc(C(=O)c3ccc(F)cc3)cc2)C1 (stereo not shown) [Compound 21, (4-Fluorophenyl) (4-(6-(3-methylpiperin-1-yl)hexyloxy)phenyl)methanone hydrogen oxalate] |  |  |  | 2560 ± 40 | 23 | 2000 ± 46 | 75
15 | CC1CCN(CCCCCOc2cccc(C(=O)c3ccccc3)c2)CC1 [Compound 22, (3-((5-(4-Methylpiperidin-1-yl)pentyl)oxy)phenyl)(phenyl)methanone hydrogen oxalate] | 298 |  |  | 1700 ± 46 | 32 | 4450 ± 94 | 
16 | CC1CCN(CCCCCOc2ccc(C(=O)c3ccccc3)cc2)CC1 [Compound 23, (4-((5-(4-Methylpiperidin-1-yl)pentyl)oxy)phenyl)(phenyl)methanone hydrogen oxalate] | 67 |  |  | 1570 ± 35 | 27 | 2600 ± 72 | 
17 | CC1CCN(CCCCCCOc2cccc(C(=O)c3ccccc3)c2)CC1 [Compound 24, (3-((6-(4-Methylpiperidin-1-yl)hexyl)oxy)phenyl)(phenyl)methanone hydrogen oxalate] | 106 |  |  | 1060 ± 43 | 20 | 2460 ± 70 | 
18 | CC1CCN(CCCCCCOc2ccc(C(=O)c3ccccc3)cc2)CC1 [Compound 25, (4-((6-(4-Methylpiperidin-1-yl)hexyl)oxy)phenyl)(phenyl)methanone hydrogen oxalate] | 53 |  |  | 1560 ± 50 | 22 | 2690 ± 47 | 
19 | O=C(O)C(=O)O.O=C(c1ccccc1)c1ccccc1OCCCCCN1CCCCCC1 [Compound 26, (2-((5-(Azepan-1-yl)pentyl)oxy)phenyl)(phenyl)methanone hydrogen oxalate] | 302 | 24 | selective eqBuChE inhibitors | 384 ± 8 | 3 |  | 
20 | O=C(c1ccccc1)c1cccc(OCCCCCN2CCCCCC2)c1 [Compound 27, (3-((5-(Azepan-1-yl)pentyl)oxy)phenyl)(phenyl)methanone hydrogen oxalate] | 307 |  |  | 901 ± 10 | 14 | 3660 ± 92 | 
21 | O=C(c1ccc(Cl)cc1)c1ccc(OCCCCCN2CCCCCC2)cc1 [Compound 29, (4-Chlorophenyl)(4-(5-(azepan-1-yl)pentyloxy)phenyl)methanone hydrogen oxalate] | 66 |  |  | 676 ± 3 | 26 | 2240 ± 35 | 
22 | O=C(c1ccc(F)cc1)c1ccc(OCCCCCN2CCCCCC2)cc1 [Compound 30, (4-Fluorophenyl) (4-((5-(azepan-1-yl)pentyl)oxy)phenyl)methanone hydrogen oxalate] | 13 |  |  | 224 ± 3 | 30 | 1110 ± 3 | 
23 | O=C(O)C(=O)O.O=C(c1ccccc1)c1ccccc1OCCCCCCN1CCCCCC1 [Compound 31, (2-((6-(Azepan-1-yl)hexyl)oxy)phenyl)(phenyl)methanone hydrogen oxalate] | 162 | 11 | selective eqBuChE inhibitors | 317 ± 3 | 5 |  | 
24 | O=C(c1ccc(Cl)cc1)c1ccc(OCCCCCCN2CCCCCC2)cc1 [Compound 34, (4-Chlorophenyl)(4-((6-(azepan-1-yl)hexyl)oxy)phenyl)methanone hydrogen oxalate] | 133 |  |  | 867 ± 2 | 30 | 2033 ± 18 | 
25 | O=C(c1ccc(F)cc1)c1ccc(OCCCCCCN2CCCCCC2)cc1 [Compound 35, (4-((6-(Azepan-1-yl)hexyl)oxy)phenyl)(4-fluorophenyl)methanone hydrogen oxalate] | 35 |  |  | 161 ± 4 | 24 | 1654 ± 4 | 
26 | Clc1ccc(CCCOCCCN2CCCCC2)cc1 [pitolisant, reference compound] |  | 3 |  |  |  |  | 
